Test results from patent US5952335A, “Fused polycyclic heterocycle derivatives” (Eisai Co., Ltd., priority 1995, dated 1999).
Where a name gives a salt, the structure may show the parent alone. Read-outs that look alike come from different tables or passages of the source. One block for each compound: values may come before it.

Key:
[1] = system: M5076 (Mouse Reticulum Cell Sarcoma); experiment: in vivo Antitumor Test on M5076 (Mouse Reticulum Cell Sarcoma) transplanted in BDF1 mice; settings: M5076, ip, 504 h, i.p.; for survival rate on day 21 at 50 mg/kg / inhibition in vivo at 50 mg/kg: 50 mg/kg/day
Protocol: M5076 cells (1×10^6 /animal) were subcutaneously transplanted into the side part of each BDF1 mouse (aged 6 to 7 weeks, female). A compound of the present invention was dissolved in a 5% solution of glucose. From the next day of the transplantation, the solution of the compound was intraperitoneally administered to the animals once a day in accordance with each schedule. On the other hand, a 5% solution of glucose was administered to the control group. The control group had 10 animals, while each test group had 5 animals.
On the 21st day after the transplantation, tumors were taken out and weighed. The tumor multiplication inhibitory ratio of each test group to the control group was determined in accordance with the following formula: [formula] wherein T means the average tumor weight of the test group; and C means the average tumor weight of the control group.

[2] = system: P388 cells; experiment: in vitro Antitumor Test on P388 Cells (Mouse Leukemic Cells), MTT, 3 days; format: cell-based; settings: 72 h, 3 days incubation
Protocol: P388 cells suspended in RPMI1640 medium (manufactured by Sanko Junyaku) containing 10% of fetal calf serum, (100 U/ml) of penicillin, 100 μg/ml of streptomycin, 5×10^-5 M of mercaptoethanol and 1 mM of sodium pyruvate were pipetted into a 96-well U-bottomed microplate at a ratio of 1.25×10^3 cells (0.1 ml) per well and incubated in a incubator containing 5% of carbon dioxide at 37° C. for a day. A compound of the present invention was dissolved in dimethyl sulfoxide to give a concentration of 10^-2 M and then diluted with the 10% fetal calf serum-containing RPMI1640 culture medium to give a concentration of 10^-4 or 10^-5 M. By taking this concentration as the maximal level, threefold serial dilution was effected with the use of the 10% fetal calf serum-containing RPMI1640 culture medium. Then these dilutions were added to the P388 incubation plate as described above at a ratio of 0.1 ml per well followed by incubation in an incubator containing 5% of carbon dioxide at 37° C. for 3 days. After the completion of the incubation, 0.05 ml/well of a 3.3 mg/ml solution of MTT [3-(4,5-dimethylthiazol-2-yl)-2,5-diphenyltetrazolium bromide] was added thereto and the incubation was continued for additional 2 hours. The microplate was centrifuged and the supernatant was aspirated off from each well. Then the formazan thus formed was dissolved in 0.1 ml of dimethyl sulfoxide and the absorbance thereof at 540 nm measured with a microplate reader was taken as an indication of the viable cell count. In accordance with the following formula, the inhibitory ratio was calculated and the 50% inhibitory concentration (IC50) of the test compound was determined: [formula] wherein T means the absorbance of a well containing the test compound; and C means the absorbance of a well containing no test compound.

[3] = system: MX-1 (Human Mammary Cancer); experiment: in vivo Antitumor Test on MX-1 (Human Mammary Cancer) transplanted in nude mice; settings: Mus musculus, ip, 528 h, i.p., q7d × 3
Protocol: MX-1 tumor pieces (about 1 mm^3) were subcutaneously transplanted into the side part of each nude mouse (BALB/C.nu/nu, 6 to 7 weeks, female). A compound of the present invention was dissolved in a 5% solution of glucose. When the tumor volume reached 50 mm^3 (on the about 10th day after the transplantation), the solution of the compound was intraperitoneally administered to the animals once a day in accordance with each schedule. On the other hand, a 5% solution of glucose was administered to the control group. The control group had 10 animals, while each test group had 5 animals. On the 22nd day after the transplantation, tumors were taken out and weighed. The tumor multiplication inhibitory ratio of each test group to the control group was determined in accordance with the following formula: [formula] wherein T means the average tumor weight of the test group; and C means the average tumor weight of the control group.

[4] = d1,2,3,4 after transplantation, read-out: Survival rate on the judgement day (21th day)
[5] = d1,2,3,4 after transplantation, tumor weight day 21, read-out: Proliferation inhibitory ratio (%)

Structure (SMILES): COc1ccc2ccc3c(c2c1)c1cccc2c(=O)n(CCN(C)C)c(=O)n3c21 [Example 26, 5-[2-(Dimethylamino)ethyl]-12-methoxy-4H-benzo[c]pyrimido [5,6,1-jk]carbazole-4,6(5H)-dione hydrochloride]
- survival rate on day 21 at 50 mg/kg [1, 4]: 100%
- inhibition in vivo at 50 mg/kg [1, 5]: 97.4%
- IC50 [2]: 230 nM

Structure (SMILES): CNCCn1c(=O)c2cccc3c4c5c(ccc4n(c1=O)c23)C(=O)CCC5 [Example 10, 12,13-Dihydro-5-[2-(methylamino)ethyl]-4H-benzo[c]pyrimido[5,6,1-jk]carbazole-4,6,10(5H,11H)-trione hydrochloride]
- responders at 10 mg/kg ([3]; 10 mg/kg/day, read-out: Survival rate on the judgement day (22th day)): 100%
- inhibition in vivo at 10 mg/kg ([3]; 10 mg/kg/day, tumor weight day 22, read-out: Proliferation inhibitory ratio (%)): 59.7%
- IC50 [2]: 8.5 nM

Structure (SMILES): CN(CCO)CCn1c(=O)c2cccc3c4c5ccccc5ccc4n(c1=O)c23 [Example 52, 5-[2-[N-(2-(Hydroxyethyl)-N-methylamino]ethyl]-4H-benzo[c]pyrimido[5,6,1-jk]carbazole-4,6(5H)-dione hydrochloride]
- survival rate on day 21 at 50 mg/kg [1, 4]: 100%
- inhibition in vivo at 50 mg/kg [1, 5]: 70.6%
- IC50 [2]: 150 nM

Structure (SMILES): O=C1CCCc2c1ccc1c2c2cccc3c(=O)n(CCN4CCCC4)c(=O)n1c32 [Example 11, 12,13-Dihydro-5-[2-(1-pyrrolidinyl)ethyl]-4H-benzo [c]pyrimido[5,6,1-jk]carbazole-4,6,10(5H,11H)-trione hydrochloride]
- responders at 30 mg/kg ([3]; 30 mg/kg/day, read-out: Survival rate on the judgement day (22th day)): 100%
- inhibition in vivo at 30 mg/kg ([3]; 30 mg/kg/day, tumor weight day 22, read-out: Proliferation inhibitory ratio (%)): 82.5%
- IC50 [2]: 42 nM

Structure (SMILES): CN(C)CCn1c(=O)c2cccc3c4c5c(ccc4n(c1=O)c23)C(=O)CC5 [Example 7, 11,12-Dihydro-5-[2-(dimethylamino)ethyl]-4H,10H-ccylopenta[c]pyrimido[5,6,1-jk]carbazole-4,6,10(5H)-trione hydrochloride]
- responders at 15 mg/kg ([3]; 15 mg/kg/day, read-out: Survival rate on the judgement day (22th day)): 100%
- inhibition in vivo at 15 mg/kg ([3]; 15 mg/kg/day, tumor weight day 22, read-out: Proliferation inhibitory ratio (%)): 73.2%
- IC50 [2]: 31 nM

Structure (SMILES): O=c1c2cccc3c4c5ccccc5ccc4n(c(=O)n1CCN1CCCC1)c23 [Example 12, 5-[2-(1-Pyrrolidinyl)ethyl]-4H-benzo[c]pyrimido[5,6,1-jk]carbazole-4,6(5H)-dione hydrochloride]
- survival rate on day 21 at 50 mg/kg [1, 4]: 100%
- inhibition in vivo at 50 mg/kg [1, 5]: 93.9%
- IC50 [2]: 62 nM

Structure (SMILES): CN(C)CCn1c(=O)c2cccc3c4c5c(ccc4n(c1=O)c23)C(O)CO5 (stereo not shown) [Example 9, 2,3-Dihydro-8-[2-(dimethylamino)ethyl]-3-hydroxy-7H-furo[3,2-c]pyrimido[5,6,1-jk]carbazole-7,9(8H)-dione]
- IC50 [2]: 6.7 nM

Structure (SMILES): CN(C)CCn1c(=O)c2cccc3c4c5ccc(C#N)cc5ccc4n(c1=O)c23 [Example 35, 11-Cyano-5-[2-(dimethylamino)ethyl]-4H-benzo[c]pyrimido [5,6,1-jk]carbazole-4,6(5H)-dione hydrochloride]
- survival rate on day 21 at 25 mg/kg ([1]; 25 mg/kg/day, d9 after transplantation, read-out: Survival rate on the judgement day (21th day)): 100%
- inhibition in vivo at 25 mg/kg ([1]; 25 mg/kg/day, d9 after transplantation, tumor weight day 21, read-out: Proliferation inhibitory ratio (%)): 78.7%
- IC50 [2]: 63 nM

Structure (SMILES): CN(C)CCn1c(=O)c2cccc3c4c(n(c1=O)c32)Cc1ccccc1-4 [Example 20, 2-[2-(Dimethylamino)ethyl]-1H,11H-indeno[1',2':4,5]pyrrolo[3,2,1-ij]quinazoline-1,3(2H)-dione hydrochloride]
- survival rate on day 21 at 12.5 mg/kg ([1]; 12.5 mg/kg/day, d1,2,3,4 after transplantation, read-out: Survival rate on the judgement day (21th day)): 100%
- inhibition in vivo at 12.5 mg/kg ([1]; 12.5 mg/kg/day, d1,2,3,4 after transplantation, tumor weight day 21, read-out: Proliferation inhibitory ratio (%)): 70.8%
- IC50 [2]: 570 nM

Structure (SMILES): CN(C)CCn1c(=O)c2cccc3c4c5cnccc5ccc4n(c1=O)c23 [Example 33, 9-[2-(Dimethylamino)ethyl]-8H-pyrido[4,3-c]pyrimido[5,6,1-jk]carbazole-8,10(9H)-dione dihydrochloride]
- survival rate on day 21 at 50 mg/kg ([1]; d9 after transplantation, read-out: Survival rate on the judgement day (21th day)): 100%
- inhibition in vivo at 50 mg/kg ([1]; d9 after transplantation, tumor weight day 21, read-out: Proliferation inhibitory ratio (%)): 74.9%
- IC50 [2]: 56 nM

Next, values leading:

- IC50 [2]: 360 nM
Structure (SMILES): CN(C)CCn1c(=O)c2cccc3c4c5c(ccc4n(c1=O)c23)C(=O)C(C)(C)CC5 [Example 44, 12,13-Dihydro-11,11-dimethyl-5-[2-(dimethylamino)ethyl]-4H-benzo[c]pyrimido[5,6,1-jk]carbazole-4,6,10(5H,11H)-trione hydrochloride]

- IC50 [2]: 77 nM
Structure (SMILES): CN(C)CCn1c(=O)c2cccc3c4c5ccc(O)cc5ccc4n(c1=O)c23 [Example 46, 5-[2-(Dimethylamino)ethyl]-11-hydroxy-4H-benzo[c]pyrimido [5,6,1-jk]carbazole-4,6(5H)-dione hydrochloride]

- IC50 [2]: 110 nM
Structure (SMILES): Cc1cc2c(=O)n(CCN(C)C)c(=O)n3c4ccc5ccccc5c4c(c1)c23 [Example 38, 5-[2-(Dimethylamino)ethyl]-2-methyl-4H-benzo[c]pyrimido [5,6,1-jk]carbazole-4,6(5H)-dione hydrochloride]

- IC50 [2]: 31 nM
Structure (SMILES): Cc1ccc2c(ccc3c2c2cccc4c(=O)n(CCN(C)C)c(=O)n3c42)n1 [Example 57, 9-[2-(Dimethylamino)ethyl]-3-methyl-8H-pyrido[2,3-c]pyrimido[5,6,1-jk]carbazole-8,10(9H)-dione dihydrochloride]

- IC50 [2]: 81 nM
Structure (SMILES): COc1cccc2c1ccc1c2c2cccc3c(=O)n(CCN(C)C)c(=O)n1c32 [Example 23, 5-[2-(Dimethylamino)ethyl]-10-methoxy-4H-benzo[c]pyrimido[5,6,1-jk]carbazole-4,6(5H)-dione hydrochloride]

- IC50 [2]: 350 nM
Structure (SMILES): Cc1ccc(S(=O)(=O)Nc2ccc3c(ccc4c3c3cccc5c(=O)n(CCN(C)C)c(=O)n4c53)c2)cc1 [Example 48, 5-[2-(Dimethylamino)ethyl]-11-(4-methylbenzenesulfonamido)-4H-benzo[c]pyrimido[5,6,1-jk]carbazole-4,6(5H)-dione hydrochloride]

- IC50 [2]: 250 nM
Structure (SMILES): CN(C)CCn1c(=O)c2cc(N)cc3c4c5ccccc5ccc4n(c1=O)c23 [Example 47, 2-Amino-5-[2-(dimethylamino)ethyl]-4H-benzo[c]pyrimido [5,6,1-jk]carbazole-4,6(5H)-dione dihydrochloride]

- IC50 [2]: 155 nM
Structure (SMILES): CN(C)CCn1c(=O)c2nc3ccccc3c3c4ccc5ccccc5c4n(c1=O)c23 [Example 58, 7-[2-(Dimethylamino)ethyl]-6H-benzo[c,i]pyrimido[1,6,5-lm]-β-carboline-6,8(7H)-dione]

- IC50 [2]: 7.7 nM
Structure (SMILES): CN(C)CCn1c(=O)c2cccc3c4c5c(ccc4n(c1=O)c23)C(=O)NCC5 [Example 39, 1,2-Dihydro-9-[2-(dimethylamino)ethyl]-8H-pyrido[3,4-c]pyrimido[5,6,1-jk]carbazole-4,8,10(3H,9H)-trione hydrochloride]
